Among the test systems are LOX IMVI; U-251; PC-3; MCF7; Malme-3M; NCI-H226; UACC-257; SNB-75; OVCAR-3; SW-620; HCT-15; SR; OVCAR-4; T47D; ACHN; MDA-N; Hs-578T; SK-MEL-2; HCT-116; KM-20L2.
Holding throughout (experiment): NCI-60 cell line screen, 48 h

Here are results for 11 compounds from ChEMBL document CHEMBL1201862, “PubChem BioAssay data set” (2004).

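1) Cells in 96-well plates. 2) Compound, 48 h, 5 concentrations. 3) Linear interpolation between surrounding doses. 4) Unreached endpoint = highest concentration. Here, GI50 denotes the concentration required for 50% inhibition of growth.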 Activity calls are given as the source filed them. Rule as the data show it: active = GI50 up to about 1.1 µM and inactive = higher.

Turning to `CC1(C)N=C(/C(Cl)=[N+](/[O-])C(=O)c2ccc(F)cc2)C(C)(C)N1O`, the GI50 in the test with LOX IMVI is 11.7 µM (inactive); in the test on U-251, > 10 µM (inactive); with PC-3 it was 17.5 µM (inactive); in the test with MCF7, 19.1 µM (inactive); in the test on Malme-3M, 16.3 µM (inactive); in the test on NCI-H226, 22.7 µM (inactive). Further, the GI50 in the test with UACC-257 is 17.1 µM (inactive); with SNB-75, 16.6 µM (inactive); with OVCAR-3, 17 µM (inactive); with SW-620 it was 15.1 µM (inactive); in the test on HCT-15, 13.4 µM; in the test on SR it was 4.16 µM (inactive). For the same compound, the GI50 in the test on OVCAR-4 is 17.9 µM (inactive); with T47D, 25.7 µM (inactive); with ACHN, 19.1 µM (inactive); with MDA-N, 16.4 µM (inactive); in the test with Hs-578T, 26.6 µM (inactive); in the test with SK-MEL-2 it was 17.1 µM (inactive). Further, in the test with HCT-116, the GI50 is 16.4 µM (inactive).

`Cc1ccc(S(=O)(=O)O)cc1.c1cc2c(c(NC3=NCCN3)c1)CCCC2`: the GI50 in the test on LOX IMVI, with U-251, in the test on PC-3, in the test on MCF7, in the test on Malme-3M and with NCI-H226 was > 100 µM (inactive) throughout. Also, the GI50 in the test on UACC-257 is > 100 µM (inactive); with SNB-75, 89.3 µM (inactive); with OVCAR-3, > 100 µM (inactive); with SW-620, 56.2 µM (inactive); with HCT-15, more than 100 µM; in the test with SR, > 100 µM (inactive). The GI50 in the test on OVCAR-4, with T47D, in the test with ACHN, in the test on MDA-N, in the test on Hs-578T and in the test on SK-MEL-2 was > 100 µM (inactive) throughout. The GI50 in the test on HCT-116 is > 100 µM (inactive).

On to `Cc1[nH]n(-c2ncc(C(=O)O)c(=O)[nH]2)c(=O)c1CCO`, for which the GI50 with LOX IMVI is > 100 µM (inactive); in the test with U-251, > 100 µM (inactive); in the test on PC-3, > 100 µM (inactive); in the test with MCF7 it was > 92.7 µM (inactive); in the test on Malme-3M, > 100 µM (inactive); in the test on NCI-H226 it was > 100 µM (inactive). Besides, the GI50 in the test with UACC-257 is > 100 µM (inactive); with SNB-75 it was > 88.5 µM (inactive); with OVCAR-3, > 100 µM (inactive); with SW-620 it was > 100 µM (inactive); in the test with HCT-15, more than 100 µM; in the test with SR it was > 37 µM (inactive). The GI50 in the test with OVCAR-4, in the test with T47D, in the test with ACHN, with MDA-N, with Hs-578T and in the test on SK-MEL-2 was > 100 µM (inactive) throughout. Moreover, the GI50 in the test with HCT-116 was > 100 µM (inactive).

`O=C(O)c1ccccc1/C=C1/Nc2ccccc2C1=O`: the GI50 in the test on LOX IMVI was 75.9 µM (inactive); in the test on U-251 it was > 100 µM (inactive); with PC-3, > 100 µM (inactive); with MCF7, 48.8 µM (inactive); in the test with Malme-3M it was > 100 µM (inactive); with NCI-H226 it was > 100 µM (inactive). Moreover, the GI50 with UACC-257 was > 100 µM (inactive); in the test on SNB-75, > 100 µM (inactive); with OVCAR-3, > 100 µM (inactive); in the test on SW-620 it was 57.5 µM (inactive); with HCT-15, 41.5 µM; in the test on SR, 66.5 µM (inactive). Moreover, the GI50 in the test on OVCAR-4 is 63.4 µM (inactive); with T47D it was 51.8 µM (inactive); in the test on ACHN, 57.3 µM (inactive); in the test on MDA-N, > 100 µM (inactive); in the test on Hs-578T it was 62.5 µM (inactive); in the test on SK-MEL-2, > 100 µM (inactive). The GI50 in the test on HCT-116 was 81.5 µM (inactive).

In the case of `CCCNC(=O)c1cc2ccccc2cc1C(=O)OC`, the GI50 in the test with U-251 was > 100 µM (inactive); in the test with Malme-3M it was > 100 µM (inactive); with NCI-H226, 83.4 µM (inactive); in the test on UACC-257 it was > 100 µM (inactive); in the test with SNB-75, 19.3 µM (inactive); in the test on KM-20L2 it was > 100 µM (inactive). The GI50 with OVCAR-3 is > 100 µM (inactive); in the test with SW-620, > 100 µM (inactive); in the test on HCT-15, more than 100 µM; in the test with OVCAR-4, > 100 µM (inactive); in the test on ACHN it was 78.2 µM (inactive); with SK-MEL-2 it was > 100 µM (inactive). Further, in the test on HCT-116, the GI50 was > 100 µM (inactive).

For the compound `CCCCCCCC(=O)OCC1OC(n2cc(F)c(=O)[nH]c2=O)C(N)C(OC(=O)CCCCCCC)C1O` (configuration not stated), the GI50 in the test with LOX IMVI was 18.5 µM (inactive); with U-251, 19.5 µM (inactive); with Malme-3M, 17.5 µM (inactive); in the test with UACC-257, 17.8 µM (inactive); with SNB-75, 15 µM (inactive); in the test on KM-20L2, 18.9 µM (inactive). The GI50 with OVCAR-3 is 20.8 µM (inactive); in the test with SW-620, 18.4 µM (inactive); in the test on HCT-15, 18.5 µM; with OVCAR-4, 15.2 µM (inactive); in the test with ACHN, 20.2 µM (inactive); with SK-MEL-2 it was 18.8 µM (inactive). For the same compound, in the test with HCT-116, the GI50 was 19.5 µM (inactive).

Consider `CN(C)CCC(C(=O)C(C)(C)C)c1ccccn1` (configuration not stated), for which the GI50 in the test on LOX IMVI, in the test with U-251, with PC-3, in the test on MCF7, in the test with Malme-3M and in the test on NCI-H226 was > 100 µM (inactive) in each case. Also, the GI50 is > 100 µM (inactive) in the test with UACC-257; > 100 µM (inactive) with SNB-75; < 0.01 µM (active) in the test with OVCAR-3; > 100 µM (inactive) in the test on SW-620; more than 100 µM in the test on HCT-15; > 100 µM (inactive) in the test on SR. In addition, the GI50 with OVCAR-4, in the test with T47D, in the test with ACHN, in the test with MDA-N, in the test on Hs-578T and in the test on SK-MEL-2 was > 100 µM (inactive) throughout. The GI50 in the test on HCT-116 was > 100 µM (inactive).

As for `C[N+](C)(C)CC(=O)N/N=C(/CC1OC(=O)c2ccccc21)c1ccccc1O` (configuration not stated), the GI50 with LOX IMVI was 17.4 µM (inactive); with U-251, 22 µM (inactive); in the test with PC-3, 60.5 µM (inactive); with MCF7 it was 54.8 µM (inactive); in the test with Malme-3M, 59.8 µM (inactive); with NCI-H226 it was 20 µM (inactive). For the same compound, the GI50 with UACC-257 is 24 µM (inactive); in the test on SNB-75 it was 39.1 µM (inactive); in the test on OVCAR-3, 62.4 µM (inactive); in the test on SW-620, 33.4 µM (inactive); with HCT-15, 36.2 µM; in the test with SR, 14.3 µM (inactive). Also, the GI50 in the test on OVCAR-4 was 45.1 µM (inactive); in the test with T47D, 25.6 µM (inactive); in the test on ACHN, 20.3 µM (inactive); in the test with MDA-N it was 54.1 µM (inactive); in the test on Hs-578T it was 60.3 µM (inactive); with SK-MEL-2 it was 72.8 µM (inactive). In addition, the GI50 in the test with HCT-116 is 28.4 µM (inactive).

As to `CC(C)=CCC[C@@H](C)C1=C(O)C(=O)C(C)=C(Nc2ccccc2F)C1=O`, the GI50 in the test on LOX IMVI was 16.4 µM (inactive); in the test on U-251, 9.33 µM (inactive); with PC-3, 12.3 µM (inactive); in the test on MCF7, 24.8 µM (inactive); in the test with Malme-3M, 10.2 µM (inactive); with NCI-H226, 17.9 µM (inactive). The GI50 in the test with UACC-257 was 21.9 µM (inactive); with SNB-75 it was 22.1 µM (inactive); in the test on OVCAR-3, 4.1 µM (inactive); in the test with SW-620, 23.8 µM (inactive); in the test on HCT-15, 5.2 µM; with SR, 28.1 µM (inactive). Besides, the GI50 with OVCAR-4 was 15 µM (inactive); in the test with T47D, 14.6 µM (inactive); with ACHN it was 13.8 µM (inactive); in the test with MDA-N it was 23.1 µM (inactive); with Hs-578T it was 9.62 µM (inactive); with SK-MEL-2, 18.7 µM (inactive). The GI50 in the test on HCT-116 is 13.3 µM (inactive).

For the compound `Cc1ccc([N+](=O)[O-])cc1S(=O)(=O)Nc1ccc(C2=NN(C(=O)c3ccccc3)C(c3cccs3)C2)cc1` (configuration not stated), the GI50 in the test on LOX IMVI is 30.8 µM (inactive); with U-251, 20.8 µM (inactive); in the test with PC-3, 21.9 µM (inactive); in the test on MCF7 it was 18.1 µM (inactive); in the test on Malme-3M it was 19.1 µM (inactive); with NCI-H226 it was 21.5 µM (inactive). Besides, the GI50 in the test on UACC-257 was 21.5 µM (inactive); in the test with SNB-75, 20.2 µM (inactive); in the test with OVCAR-3, 13 µM (inactive); in the test on SW-620, 45.5 µM (inactive); in the test on HCT-15, 21 µM; in the test on SR, 28.8 µM (inactive). Besides, the GI50 in the test with OVCAR-4 was 25.6 µM (inactive); in the test with T47D, 9.42 µM (inactive); in the test with ACHN, 25.4 µM (inactive); with MDA-N it was 23.8 µM (inactive); in the test on Hs-578T, 27 µM (inactive); in the test with SK-MEL-2, 14.9 µM (inactive). Further, the GI50 in the test with HCT-116 was 22.3 µM (inactive).

As for `O=[N+]([O-])c1ncc(N(CCO)CCO)s1`, the GI50 in the test with LOX IMVI is 15.6 µM (inactive); with U-251 it was 45.3 µM (inactive); with PC-3 it was 41.3 µM (inactive); with MCF7, 37 µM (inactive); with Malme-3M, 18.2 µM (inactive); in the test on NCI-H226 it was > 100 µM (inactive). The GI50 is 25 µM (inactive) in the test on UACC-257; 30.8 µM (inactive) in the test with SNB-75; 65.6 µM (inactive) with OVCAR-3; 33.3 µM (inactive) in the test on SW-620; 33.3 µM with HCT-15; 43.8 µM (inactive) in the test on SR. Also, the GI50 in the test on OVCAR-4 is > 100 µM (inactive); in the test on T47D, 27.5 µM (inactive); in the test on ACHN, 37.7 µM (inactive); in the test on MDA-N, 30.3 µM (inactive); with Hs-578T it was 32.1 µM (inactive); in the test on SK-MEL-2, 21.6 µM (inactive). Moreover, in the test with HCT-116, the GI50 is 37.1 µM (inactive).
